Assay: Stability study: assay and related substances by gradient HPLC
Assay type: physicochemical
Description: The stability of the exemplary compositions was investigated using gradient high performance liquid chromatography analysis at different storage time points of 1 month, 3 months, 6 months, 9 months, and 11 months. The amount of each active ingredient and related degradation substances, pH, osmolality, particle size distribution, and viscosity were measured for each composition at each time point.
The suspension slurry was not irradiation sterilized in the preparation of Panel 1 formulations.
The results of the Panel II stability studies at the accelerated condition (40° C.) for the compositions shown in Table 4 are summarized in Table 6. The suspension slurry of Panel 2 formulations F7, F8, and F9 were irradiation sterilized.

Stability of ketorolac tromethamine in the compositions (all compositions of the stability studies) | Degradation of loteprednol etabonate (stability studies) | SMILES
exhibited stability |  | O=C(c1ccccc1)c1ccc2n1CCC2C(=O)O (centres unmarked) [Ketorolac tromethamine, 2-amino-2-(hydroxymethyl)propane-1,3-diol; 5-benzoyl-2,3-dihydro-1H-pyrrolizine-1-carboxylic acid]
 | pH dependency | CCOC(=O)O[C@]1(C(=O)OCCl)CC[C@H]2[C@@H]3CCC4=CC(=O)C=C[C@]4(C)[C@H]3[C@@H](O)C[C@@]21C [loteprednol etabonate, chloromethyl (8S,9S,10R,11S,13S,14S,17R)-17-ethoxycarbonyloxy-11-hydroxy-10,13-dimethyl-3-oxo-7,8,9,11,12,14,15,16-octahydro-6H-cyclopenta[a]phenanthrene-17-carboxylate]

From patent publication US12599556B2, “Ophthalmic compositions” (BIOTHERAVISION, INC., priority 2021, dated 2026)
